Reference: patent US9745325B2, “Fused heterocyclic compound” (Takeda Pharmaceutical Company Limited, priority 2014, dated 2017)

Key:
[1] = target: T1, CDK8/CycC (Homo sapiens, UniProt P49336); experiment: CDK8 inhibitory activity (Kinase Tracer-236 / Eu-anti-GST fluorescence assay); format: binding; set-up: Percent inhibition of CDK8 activity (%): concentration or dose not given beside the values; conditions: test compound concentration given as '1 1.1.1\4' [sic]
T1 construct: purchased Carna Biosciences
T1 sequence (P49336 whole entry): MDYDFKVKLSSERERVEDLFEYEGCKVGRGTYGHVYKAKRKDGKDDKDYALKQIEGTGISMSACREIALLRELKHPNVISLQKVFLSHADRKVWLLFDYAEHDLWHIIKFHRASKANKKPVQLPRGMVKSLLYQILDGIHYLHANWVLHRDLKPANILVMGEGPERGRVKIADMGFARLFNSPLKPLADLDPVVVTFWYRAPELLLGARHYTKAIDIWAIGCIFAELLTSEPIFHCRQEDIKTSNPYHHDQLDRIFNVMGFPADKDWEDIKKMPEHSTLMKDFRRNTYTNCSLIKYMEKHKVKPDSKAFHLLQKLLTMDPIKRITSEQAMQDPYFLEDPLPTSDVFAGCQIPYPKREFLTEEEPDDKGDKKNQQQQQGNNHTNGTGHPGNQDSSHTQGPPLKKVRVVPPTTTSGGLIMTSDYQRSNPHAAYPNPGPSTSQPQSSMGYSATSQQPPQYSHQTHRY
T1 sequence (P24863 whole entry partner): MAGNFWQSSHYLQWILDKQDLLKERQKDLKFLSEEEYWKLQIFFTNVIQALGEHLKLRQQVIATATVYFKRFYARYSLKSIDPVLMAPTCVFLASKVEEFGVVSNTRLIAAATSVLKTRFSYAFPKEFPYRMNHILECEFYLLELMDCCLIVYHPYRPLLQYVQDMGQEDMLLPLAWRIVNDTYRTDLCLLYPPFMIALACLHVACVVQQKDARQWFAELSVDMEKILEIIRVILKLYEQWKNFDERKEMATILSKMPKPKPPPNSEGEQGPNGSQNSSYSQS
Method in brief: (§1)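 Tracer-displacement TR-FRET binding assay: compound with kinase, Eu-cryptate anti-GST antibody and 60 nM Kinase Tracer-236 (pre-dilution level), 1 h at room temperature; ex 320 nm, em 615/665 nm. Percent inhibition is relative to no-compound control and a 10 μM control-compound blank.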

[2] = target: T2, CDC2L6/CycC (CDK19) (Homo sapiens, UniProt Q9BWU1); experiment: CDK19 inhibitory activity (Kinase Tracer-236 / Eu-anti-GST fluorescence assay); format: binding; set-up: Percent inhibition of CDK19 activity (%): concentration or dose not given beside the values; conditions: test compound concentration given as '1 1.1.1\4' [sic]
T2 construct: purchased Carna Biosciences Inc
T2 sequence (Q9BWU1 whole entry): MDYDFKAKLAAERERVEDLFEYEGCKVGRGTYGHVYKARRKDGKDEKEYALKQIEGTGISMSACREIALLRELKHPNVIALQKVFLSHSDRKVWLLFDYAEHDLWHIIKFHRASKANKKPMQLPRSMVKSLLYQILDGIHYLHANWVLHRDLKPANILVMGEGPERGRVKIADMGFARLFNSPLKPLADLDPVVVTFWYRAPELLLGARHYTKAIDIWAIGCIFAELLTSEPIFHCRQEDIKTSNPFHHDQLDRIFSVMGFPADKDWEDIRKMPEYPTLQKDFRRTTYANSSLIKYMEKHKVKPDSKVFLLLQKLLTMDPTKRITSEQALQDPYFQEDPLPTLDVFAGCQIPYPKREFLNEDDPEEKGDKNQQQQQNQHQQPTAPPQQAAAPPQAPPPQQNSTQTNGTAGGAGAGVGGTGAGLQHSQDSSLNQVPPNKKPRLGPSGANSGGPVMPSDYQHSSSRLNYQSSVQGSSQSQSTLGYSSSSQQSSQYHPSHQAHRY
T2 sequence (P24863 whole entry partner): as the sequence (P24863 whole entry partner) above
Method in brief: as §1

[3] = tested on: human multiple myeloma RPMI8226 cells; experiment: Inhibitory activity against human multiple myeloma RPMI8226 cell growth (CellTiter-Glo); format: cell-based; conditions: 1 μM test compound, cultured for 8 days; for inhibition at 1 µM: Homo sapiens, RPMI-8226, 192 h, read-out: Percent inhibition of RPMI8226 cell growth (%)
Method in brief: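 RPMI8226 cells (300/well) cultured 1 day at 37 °C, 5% CO2, then given compound at 1 μM for 8 days. ATP luminescence (CellTiter-Glo) read; percent inhibition relative to 0.1% DMSO wells.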

SMILES: COC1CN(C(=O)c2ccc(Oc3sc(C(N)=O)c4c3-c3sncc3CC4)cn2)C1 [Example 111, 8-((6-((3-Methoxyazetidin-1-yl)carbonyl)pyridin-3-yl)oxy)-4,5-dihydrothieno[3,4-g][1,2]benzothiazole-6-carboxamide]
- Percent inhibition of CDK8 activity (%) [1]: 107%
- Percent inhibition of CDK19 activity (%) [2]: 100%
- inhibition at 1 µM [3]: 58%

SMILES: CNC(=O)c1ccc(Oc2sc(C(N)=O)c3c2-c2sncc2CC3)c(C)n1 [Example 112, 8-((2-Methyl-6-(methylcarbamoyl)pyridin-3-yl)oxy)-4,5-dihydrothieno [3,4-g][1,2]benzothiazole-6-carboxamide]
- Percent inhibition of CDK8 activity (%) [1]: 106%
- Percent inhibition of CDK19 activity (%) [2]: 102%
- inhibition at 1 µM [3]: 69%

SMILES: COC1CN(C(=O)c2ccc(Oc3sc(C(N)=O)c4c3-c3sncc3CC4)c(C)n2)C1 [Example 113, 8-((6-((3-Methoxyazetidin-1-yl)carbonyl)-2-methylpyridin-3-yl)oxy)-4,5-dihydrothieno[3,4-g][1,2] benzothiazole-6-carboxamide]
- Percent inhibition of CDK8 activity (%) [1]: 108%
- Percent inhibition of CDK19 activity (%) [2]: 101%
- inhibition at 1 µM [3]: 68%

SMILES: CC(C)(O)CNC(=O)c1ccc(Oc2sc(C(N)=O)c3c2-c2sncc2CC3)cn1 [Example 114, 8-((6-((2-Hydroxy-2-methylpropyl)carbamoyl)pyridin-3-yl)oxy)-4,5-dihydrothieno[3,4-g][1,2]benzothiazole-6-carboxamide]
- Percent inhibition of CDK8 activity (%) [1]: 108%
- Percent inhibition of CDK19 activity (%) [2]: 100%
- inhibition at 1 µM [3]: 65%

SMILES: CN(CC(C)(C)O)C(=O)c1ccc(Oc2sc(C(N)=O)c3c2-c2sncc2CC3)cn1 [Example 115, 8-((6-((2-Hydroxy-2-methylpropyl) (methyl)carbamoyl)pyridin-3-yl)oxy)-4,5-dihydrothieno[3,4-g][1,2] benzothiazole-6-carboxamide]
- Percent inhibition of CDK8 activity (%) [1]: 100%
- Percent inhibition of CDK19 activity (%) [2]: 95%
- inhibition at 1 µM [3]: 63%

SMILES: Cc1nc(C(=O)N(C)C)ccc1Oc1sc(C(N)=O)c2c1-c1sncc1CC2 [Example 116, 8-((6-(Dimethylcarbamoyl)-2-methylpyridin-3-yl)oxy)-4,5-dihydrothieno[3,4-g][1,2]benzothiazole-6-carboxamide]
- Percent inhibition of CDK8 activity (%) [1]: 103%
- Percent inhibition of CDK19 activity (%) [2]: 99%
- inhibition at 1 µM [3]: 61%

SMILES: CCOCCNC(=O)c1ccc(Oc2sc(C(N)=O)c3c2-c2sncc2CC3)cn1 [Example 117, 8-((6-((2-Ethoxyethyl)carbamoyl)pyridin-3-yl)oxy)-4,5-dihydrothieno [3,4-g][1,2]benzothiazole-6-carboxamide]
- Percent inhibition of CDK8 activity (%) [1]: 110%
- Percent inhibition of CDK19 activity (%) [2]: 99%
- inhibition at 1 µM [3]: 64%

SMILES: NC(=O)c1sc(Oc2ccc(C(=O)NC3CC3)nc2)c2c1CCc1cnsc1-2 [Example 118, 8-((6-(Cyclopropylcarbamoyl)pyridin-3-yl)oxy)-4,5-dihydrothieno[3,4-g][1,2] benzothiazole-6-carboxamide]
- Percent inhibition of CDK8 activity (%) [1]: 104%
- Percent inhibition of CDK19 activity (%) [2]: 100%
- inhibition at 1 µM [3]: 64%

SMILES: CCOCCNC(=O)c1ccc(Oc2sc(C(N)=O)c3c2-c2sncc2CC3)c(C)n1 [Example 119, 8-((6-((2-Ethoxyethyl)carbamoyl)-2-methylpyridin-3-yl)oxy)-4,5-dihydrothieno[3,4-g][1,2]benzothiazole-6-carboxamide]
- Percent inhibition of CDK8 activity (%) [1]: 108%
- Percent inhibition of CDK19 activity (%) [2]: 101%
- inhibition at 1 µM [3]: 68%

SMILES: CCOCCNC(=O)c1ccc(Oc2sc(C(N)=O)c3c2-c2sncc2CC3)cc1 [Example 120]
- Percent inhibition of CDK8 activity (%) [1]: 104%
- Percent inhibition of CDK19 activity (%) [2]: 99%
- inhibition at 1 µM [3]: 74%

SMILES: COCCN(C)C(=O)c1ccc(Oc2sc(C(N)=O)c3c2-c2sncc2CC3)c(C)n1 [Example 121, 8-((6-((2-Methoxyethyl)(methyl)carbamoyl)-2-methylpyridin-3-yl)oxy)-4,5-dihydrothieno[3,4-g][1,2] benzothiazole-6-carboxamide]
- Percent inhibition of CDK8 activity (%) [1]: 104%
- Percent inhibition of CDK19 activity (%) [2]: 101%
- inhibition at 1 µM [3]: 63%

SMILES: COCCN(C)C(=O)c1ccc(Oc2sc(C(N)=O)c3c2-c2sncc2CC3)cc1 [Example 123]
- Percent inhibition of CDK8 activity (%) [1]: 100%
- Percent inhibition of CDK19 activity (%) [2]: 101%
- inhibition at 1 µM [3]: 64%

SMILES: Cc1n[nH]c(C)c1Oc1sc(C(N)=O)c2c1-c1sncc1CC2 [Example 124, 8-((3,5-Dimethyl-1H-pyrazol-4-yl)oxy)-4,5-dihydrothieno[3,4-g][1,2] benzothiazole-6-carboxamide]
- Percent inhibition of CDK8 activity (%) [1]: 105%
- Percent inhibition of CDK19 activity (%) [2]: 101%
- inhibition at 1 µM [3]: 70%

SMILES: COCC(=O)N(C)c1ccc(Oc2sc(C(N)=O)c3c2-c2sncc2CC3)cn1 [Example 125, 8-((6-((Methoxyacetyl)(methyl)amino)pyridin-3-yl)oxy)-4,5-dihydrothieno [3,4-g][1,2]benzothiazole-6-carboxamide]
- Percent inhibition of CDK8 activity (%) [1]: 102%
- Percent inhibition of CDK19 activity (%) [2]: 101%
- inhibition at 1 µM [3]: 66%

SMILES: COCC(=O)N(C)c1ccc(Oc2sc(C(N)=O)c3c2-c2sncc2CC3)c(C)n1 [Example 126, 8-((6-((Methoxyacetyl)(methyl)amino)-2-methylpyridin-3-yl)oxy)-4,5-dihydrothieno[3,4-g][1,2]benzothiazole-6-carboxamide]
- Percent inhibition of CDK8 activity (%) [1]: 103%
- Percent inhibition of CDK19 activity (%) [2]: 102%
- inhibition at 1 µM [3]: 67%

SMILES: COCC(=O)Nc1ccc(Oc2sc(C(N)=O)c3c2-c2sncc2CC3)c(C)n1 [Example 127, 8-((6-((Methoxyacetyl)amino)-2-methylpyridin-3-yl)oxy)-4,5-dihydrothieno[3,4-g][1,2]benzothiazole-6-carboxamide]
- Percent inhibition of CDK8 activity (%) [1]: 106%
- Percent inhibition of CDK19 activity (%) [2]: 100%
- inhibition at 1 µM [3]: 65%

SMILES: CC(=O)Nc1ccc(Oc2sc(C(N)=O)c3c2-c2sncc2CC3)c(C)n1 [Example 128, 8-((6-Acetamido-2-methylpyridin-3-yl)oxy)-4,5-dihydrothieno[3,4-g][1,2] benzothiazole-6-carboxamide]
- Percent inhibition of CDK8 activity (%) [1]: 98%
- Percent inhibition of CDK19 activity (%) [2]: 102%
- inhibition at 1 µM [3]: 70%

SMILES: CNc1ccc(Oc2sc(C(N)=O)c3c2-c2sncc2CC3)cn1 [Example 129, 8-((6-(Methylamino)pyridin-3-yl)oxy)-4,5-dihydrothieno[3,4-g][1,2] benzothiazole-6-carboxamide]
- Percent inhibition of CDK8 activity (%) [1]: 100%
- Percent inhibition of CDK19 activity (%) [2]: 98%
- inhibition at 1 µM [3]: 66%

SMILES: NC(=O)c1sc(Oc2ccc(NC(=O)C3CC3)nc2)c2c1CCc1cnsc1-2 [Example 130, 8-((6-((Cyclopropylcarbonyl)amino)pyridin-3-yl)oxy)-4,5-dihydrothieno [3,4-g][1,2]benzothiazole-6-carboxamide]
- Percent inhibition of CDK8 activity (%) [1]: 101%
- Percent inhibition of CDK19 activity (%) [2]: 99%
- inhibition at 1 µM [3]: 66%

SMILES: Cc1nc(C(N)=O)ccc1Oc1sc(C(N)=O)c2c1-c1sncc1CC2 [Example 131, 8-((6-Carbamoyl-2-methylpyridin-3-yl)oxy)-4,5-dihydrothieno[3,4-g][1,2] benzothiazole-6-carboxamide]
- Percent inhibition of CDK8 activity (%) [1]: 101%
- Percent inhibition of CDK19 activity (%) [2]: 102%
- inhibition at 1 µM [3]: 73%

SMILES: NC(=O)c1sc(Oc2cccnc2)c2c1CCc1cnsc1-2 [Example 132, 8-(Pyridin-3-yloxy)-4,5-dihydrothieno [3,4-g][1,2]benzothiazole-6-carboxamide]
- Percent inhibition of CDK8 activity (%) [1]: 102%
- Percent inhibition of CDK19 activity (%) [2]: 97%
- inhibition at 1 µM [3]: 61%

SMILES: CCC(=O)Nc1ccc(Oc2sc(C(N)=O)c3c2-c2sncc2CC3)c(C)n1 [Example 133, 8-((2-Methyl-6-(propionylamino)pyridin-3-yl)oxy)-4,5-dihydrothieno [3,4-g][1,2]benzothiazole-6-carboxamide]
- Percent inhibition of CDK8 activity (%) [1]: 110%
- Percent inhibition of CDK19 activity (%) [2]: 101%
- inhibition at 1 µM [3]: 63%

SMILES: CCC(=O)Nc1ccc(Oc2sc(C(N)=O)c3c2-c2sncc2CC3)cn1 [Example 134, 8-((6-(Propionylamino)pyridin-3-yl)oxy)-4,5-dihydrothieno[3,4-g][1,2] benzothiazole-6-carboxamide]
- Percent inhibition of CDK8 activity (%) [1]: 100%
- Percent inhibition of CDK19 activity (%) [2]: 99%
- inhibition at 1 µM [3]: 59%

SMILES: CC(=O)N(C)c1ccc(Oc2sc(C(N)=O)c3c2-c2sncc2CC3)cn1 [Example 135, 8-((6-(Acetyl(methyl)amino)pyridin-3-yl)oxy)-4,5-dihydrothieno[3,4-g][1,2] benzothiazole-6-carboxamide]
- Percent inhibition of CDK8 activity (%) [1]: 109%
- Percent inhibition of CDK19 activity (%) [2]: 97%
- inhibition at 1 µM [3]: 55%

SMILES: CCOC(=O)Nc1ccc(Oc2sc(C(N)=O)c3c2-c2sncc2CC3)c(C)n1 [Example 136, Ethyl (5-((6-carbamoyl-4,5-dihydrothieno[3,4-g][1,2]benzothiazol-8-yl)oxy)-6-methylpyridin-2-yl) carbamate]
- Percent inhibition of CDK8 activity (%) [1]: 107%
- Percent inhibition of CDK19 activity (%) [2]: 102%
- inhibition at 1 µM [3]: 66%

SMILES: COCCNC(=O)c1ccc(Oc2sc(C(N)=O)c3c2-c2sncc2CC3)cn1 [Example 138, 8-((6-((2-Methoxyethyl)carbamoyl)pyridin-3-yl)oxy)-4,5-dihydrothieno[3,4-g][1,2]benzothiazole-6-carboxamide fumaric acid (1:1)]
- Percent inhibition of CDK8 activity (%) [1]: 103%
- Percent inhibition of CDK19 activity (%) [2]: 100%
- Percent inhibition of RPMI8226 cell growth (%) ([3]; 1 µM): 69%
